Assay results taken from PMC8412337, “Alpha-single chains of collagen type VI inhibit the fibrogenic effects of triple helical collagen VI in hepatic stellate cells” (PLoS ONE, 2021).

Assays:
primary rat HSC = assay: FACS analysis of apoptosis (propidium iodide DNA content); assay type: cell-based
Method: Activated HSC (third passage) were serum starved for 24 h in standard medium without FBS (starving medium), followed by dissociation with 500 μl 0.05% trypsin-EDTA (Biochrom, Berlin, Germany) and neutralization with 30 ml starving medium containing 1 g/l soybean trypsin inhibitor and 1 g/l ovalbumin. Alternatively, cells were scraped carefully with a cell-scraper (Costar, Cambridge, MA, USA) to exclude any potential effect of trypsin. After centrifugation at 800 x g for 10 min, cells were washed twice with 20 ml PBS (w/o Ca^2+, Mg^2+; Biochrom, Berlin, Germany), resuspended in starving medium and plated at a density of 1.5-2x10^6 in 1.7 ml starving medium in 6-well plates (NUNC, Wiesbaden, Germany). Cells were then treated with starving medium, soluble CI or CVI (both at a final concentration of 30 mg/l), or 10% FBS. For quantification of spreading, cells that had attached were counted 12 hours after plating and spreading efficiency was determined as percentage of plated cells in each group. De-novo DNA synthesis and apoptosis were assessed by morphological criteria, Cell death detection ELISA and FACS analysis as described below. […] After blocking the cells 1h with DMEM+1% FBS, the cells were incubated with primary antibodies against a-actin (Sigma-Aldrich, Taufkirchen, Germany, #A2547; dilution 1:200) and GFAP (Sigma-Aldrich, #G9269; dilution 1:20) followed by a washing step with PBS and the incubation with fluorescence-labeled secondary antibodies (Alexa Fluor 546 & Alexa Fluor 488, Molecular Probes, Eugene, USA, #A11030 & #A11034; dilution 1:100). […] Cells were analyzed by fluorescence microscopy (Zeiss, Jena, Germany; Kodak Ektachrome P1600 and a quantitative staining analysis was performed using Image J software (version 1.50i; National Institutes of Health, Bethesda, […], USA).
10^5 of freshly set cells were treated with starving medium, CI, CVI or 10% FBS for 24 or 48 hours as described before. […] Fixed cells were stained with propidium iodide (50 mg/l) in a final volume of 1 ml before being subjected to fluorescence activated cell sorting (FACS) analysis.

[1] = system: Bax and Bcl-2 in activated HSCs; assay: Western-blot analysis of Bax and Bcl-2; assay type: cell-based, rat; conditions: densitometry, three independent experiments
Method: Dislodged cells were centrifuged at 800 x g/10 min and lysed with 100 μl lysis buffer. The protein concentration was determined using NanoOrange® Protein Quantitation Kit (Life Technologies) according to the manufacturer’s instructions. Briefly, protein solutions were mixed with the diluted NanoOrange reagent in 1.5 ml polypropylene tubes and heated at 95°C for 10 min in a thermomixer (Peqlab, Erlangen, Germany). Tubes were centrifuged and 200 μl of each sample were transferred to a black 96 well flat-bottom plate (Greiner BioOne, Frickenhausen, Germany). The emitted fluorescence was assessed at 570 nm in a SpectraMax Gemini EM (Molecular Devices, Biberach an der Riß, Germany). Protein concentrations were calculated from a bovine serum albumin standard curve. Equivalent amounts (10–50 μg) of protein were used in […]. Sample buffer (1:1) was added and the aliquots (20 μl final volume) were boiled for 5 min and subjected to 12% SDS-PAGE. After blocking for 1 h at room temperature in 10 mmol Tris-HCl, pH 7.5, 100 mmol NaCl, containing 0.1% Tween 20 and 3% bovine serum albumine (BSA), nitrocellulose-membranes were incubated either with polyclonal rabbit anti-rat antibodies to Bax (1:1000, sc-493), Bcl-2 (1:1000, sc783, both Santa Cruz, Santa Cruz, USA), α-actin (1:4000, A2547, Sigma) or β-actin (1:10,000, A5441, Sigma). Membranes were then washed in 10 mmol Tris-HCl, 100 mmol NaCl, 0.1% Tween 20, pH 7.5, and incubated with anti-rabbit IgG coupled to peroxidase (1:1000, A4416, Sigma) for 1 h at room temperature or directly developed (RC20H). Bands were detected with the ECL chemiluminescence reagent (Amersham-Pharmacia, Freiburg, Germany). After stripping in 0.1 M glycin-HCl, pH 2, for 20 min at room temperature, membranes were reprobed with appropriate primary and secondary antibodies. Band intensities were analyzed by densitometry and normalized to β-actin.

## CVI: Human collagen VI isolated from placentas by pepsin digestion; triple helical, soluble
Primary rat HSC; FACS, CVI-treated versus CI-treated group, p<0.05
  fold less apoptosis compared to the CI-treated group: approximately 3 fold
Primary rat HSC; serum-starved primary rat HSC, text: within 24 hours, Fig 1C legend: 48 h, propidium iodide, three independent experiments
  percentage of apoptotic cells (FACS): 25%
[1]; 24 hours culture after serum starvation
  Bax to Bcl-2 ratio: 1.0
[1]; 24 hours, p<0.05
  Bax protein level, fold lower compared to the medium or CI group: 6-7 fold
